Data on 22 molecules can be found in ChEMBL document CHEMBL1156829 (Proc Natl Acad Sci U S A, 2008).

Molecules are shown by their SMILES.

A short description of data set [1]: NOVARTIS: Cytotoxicity against human hepatocellular carcinoma cell line (Huh7). Type of data set: toxicity, cell-based, Huh-7. The following applies: Huh7 cells (hepatocellular carcinoma cell line).
The test system of data set [2] is Plasmodium falciparum. In words: NOVARTIS: Inhibition of Plasmodium falciparum W2 (drug-resistant) proliferation in erythrocyte-based infection assay. Type of data set: functional, organism-based. As to conditions: Plasmodium falciparum, W2; read-out: EC50.
In data set [3] the test system is Plasmodium falciparum. Description: NOVARTIS: Inhibition of Plasmodium falciparum 3D7 (drug-susceptible) proliferation in erythrocyte-based infection assay. In kind it is functional, organism-based. The following applies: Plasmodium falciparum, 3D7.

`CCN1CCN(c2ccc(Nc3c4ccccc4nc4ccccc34)cc2)CC1` gave a cytotoxic concentration (CC50) in data set [1] of 17400 nM. For the same molecule, the concentration giving a half-maximal response (EC50) with Plasmodium falciparum [2] worked out at 160 nM; with Plasmodium falciparum [3], 50.7 nM.
On to `Cc1nc([P+](c2ccccc2)(c2ccccc2)c2ccccc2)c(SCc2ccccc2)o1.[O-][Cl+3]([O-])([O-])[O-]`, for which the CC50 in data set [1] amounted to 68300 nM. For the same molecule, the EC50 in the data set with Plasmodium falciparum [2] was found to be 621 nM; with Plasmodium falciparum [3] it was 456 nM.
`COc1ccc(C(NC(=O)COc2ccccc2)c2cc(Cl)c3cccnc3c2O)cc1` (stereo unspecified) showed a CC50 in data set [1] greater than 100000 nM. The results for the EC50 with Plasmodium falciparum [2] and in the data set with Plasmodium falciparum [3] were 918 nM and 3570 nM, respectively.
On the same counts, the results for `CCc1ccc(O)c(-c2cc(C(=O)Nc3cccnc3)[nH]n2)c1` are greater than 100000 nM, 910 nM and 742 nM.
As to `CN(C)CCCN(Cc1cc2cc3c(cc2[nH]c1=O)OCO3)C(=S)Nc1cccc(Cl)c1`, the CC50 in data set [1] was greater than 100000 nM. In addition, the EC50 in the data set with Plasmodium falciparum [2] is 918 nM; with Plasmodium falciparum [3], 978 nM.
In turn, `COc1ccc(/C=C/C(=O)NC(=O)c2ccccc2O)cc1` yielded a CC50 in data set [1] greater than 10000 nM. The EC50 in the data set with Plasmodium falciparum [2] was determined as 92.1 nM; with Plasmodium falciparum [3] it was 118 nM.
As to `C[n+]1c(/C=C/c2ccc(F)cc2)ccc2ccccc21`, the 50% cytotoxic concentration (CC50) in data set [1] was greater than 10000 nM. Besides, the EC50 was found to be 90.7 nM in the data set with Plasmodium falciparum [2] and 104 nM in the data set on Plasmodium falciparum [3].
In data set [1], `Cc1cccc(NC(=O)CCCn2c(=O)c3cccn3c3ccccc32)c1C` came in with a CC50 greater than 100000 nM. In addition, the EC50 stood at 906 nM in the data set with Plasmodium falciparum [2] and 778 nM in the data set on Plasmodium falciparum [3].
For `c1ccc2[nH]c(Sc3ncnc4sc5c(c34)CCC5)nc2c1`, in that order: greater than 100000 nM, 909 nM and 6840 nM.
In data set [1], `CCCCCCC[N+](CC)(CC)CCCCc1ccc(Cl)cc1` showed a CC50 greater than 10000 nM. For the same molecule, the EC50 turned out to be 90.9 nM in the data set on Plasmodium falciparum [2] and 431 nM with Plasmodium falciparum [3].
In data set [1], `CC(=O)N(C1=C(N2CCOCC2)C(=O)c2ccccc2C1=O)c1cc(C)cc(C)c1` registered a half-maximal cytotoxic concentration (CC50) of 6940 nM. Besides, the values for the EC50 with Plasmodium falciparum [2] and with Plasmodium falciparum [3] were 63.3 nM and 40.1 nM, respectively.
`COc1cc(C2C(C(=O)OCC(C)C)=C(C)NC3=C2C(=O)CC(c2ccccc2)C3)cc(Br)c1O` (stereo unspecified): the CC50 in data set [1] is greater than 100000 nM. Further, the EC50 worked out at 911 nM with Plasmodium falciparum [2] and 850 nM in the data set with Plasmodium falciparum [3].
On to `CCCCNC(=O)C1CCC(CN(Cc2c(Cl)cccc2Cl)S(=O)(=O)c2ccc(Br)cc2)CC1` (stereo unspecified), for which, in data set [1], the cytotoxic concentration (CC50) was greater than 100000 nM. For the same molecule, the EC50 in the data set with Plasmodium falciparum [2] is 916 nM; in the data set on Plasmodium falciparum [3], 546 nM.
In data set [1], `CCN(CC)c1ccc(N=Cc2ccc(Sc3nc4ccccc4s3)o2)cc1` registered a cytotoxic concentration (CC50) of 10800 nM. The results for the half-maximal effective concentration (EC50) in the data set with Plasmodium falciparum [2] and in the data set on Plasmodium falciparum [3] were 98.8 nM and 271 nM, respectively.
In the case of `c1ccc(-c2cc(NCc3ccco3)nc(-c3ccccn3)n2)nc1`, the half-maximal cytotoxic concentration (CC50) in data set [1] is greater than 10000 nM. Also, the EC50 in the data set with Plasmodium falciparum [2] came to 91.4 nM; in the data set on Plasmodium falciparum [3] it was 182 nM.
For `COc1cc(-c2cc(C)c3c(OC)ccc(OC)c3n2)cc2c1OCCN(C(=O)CCn1nc(C)cc1C)C2`, the half-maximal cytotoxic concentration (CC50) in data set [1] was greater than 100000 nM. The half-maximal effective concentration (EC50) was 913 nM in the data set with Plasmodium falciparum [2] and 2710 nM in the data set with Plasmodium falciparum [3].
For `Cc1c(C)c2c(c(C)c1O)CC[C@](C)(CN1CCN(c3cc(N4CCCC4)nc(N4CCCC4)n3)CC1)O2`, in that order: 42000 nM, 384 nM and 175 nM.
As to `CCNC(=O)NCCSc1nc(-c2ccccc2)c(-c2ccccc2)n1CC`, in data set [1], the CC50 was greater than 100000 nM. Further, the results for the 50% effective concentration (EC50) in the data set on Plasmodium falciparum [2] and in the data set on Plasmodium falciparum [3] were 917 nM and 1630 nM, respectively.
In data set [1], `CCC(C)(C)C1CCc2sc3ncnc(NN=Cc4c(Cl)cccc4Cl)c3c2C1` (stereo unspecified) yielded a CC50 greater than 100000 nM. Moreover, the EC50 came out at 904 nM with Plasmodium falciparum [2] and 733 nM in the data set on Plasmodium falciparum [3].
On to `COc1cc(C(=O)C=CNc2ccc(N(C)C)cc2)cc(OC)c1OC`, for which, in data set [1], the CC50 was greater than 100000 nM. Moreover, the EC50 is 905 nM in the data set with Plasmodium falciparum [2] and 2070 nM in the data set with Plasmodium falciparum [3].
Molecule `S=C(NC1CCCCC1)NC1CC2CCC(C1)N2Cc1ccccc1` (stereo unspecified) returned a CC50 in data set [1] of 51400 nM. Further, the EC50 with Plasmodium falciparum [2] was 468 nM; with Plasmodium falciparum [3], 2970 nM.
For `CCCCCCCCCCCC(=O)N(C)CCCNc1ccnc2cc(Cl)ccc12`, half-maximal cytotoxicity in data set [1] (CC50) was put at 3010 nM. Besides, the EC50 in the data set with Plasmodium falciparum [2] was 27.3 nM; with Plasmodium falciparum [3] it was 223 nM.
